PubChem BioAssay AID2060488 (Molecular Pharmacology Branch, DTP, NCI, 2025)

Test system: 966289-007-R4-J1-PDC complex spheroid viability
Test: Anticancer human tumor 966289-007-R4-J1-PDC patient-derived pancreatic adenocarcinoma cell line growth inhibition [GQUAD]
Conditions: for IC50: curve of first compound; for viability, T/C: stronger effect = lower value
How it was run: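 Viability of tumor cells grown as complex spheroids with endothelial and stromal cells, exposed to drug combinations. Top concentration at or near clinical Cmax (else 10 microM), diluted in half-log increments.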

[1] = second compound 0.0316 µM, first compound 0.0316 µM
[2] = second compound 0.0316 µM, first compound 0.1 µM
[3] = second compound 0.0316 µM, first compound 0.316 µM
[4] = second compound 0.0316 µM, first compound 1 µM
[5] = second compound 0.0316 µM, first compound 3.16 µM
[6] = second compound 0.0316 µM, first compound 10 µM
[7] = second compound 0.1 µM, first compound 0.0316 µM
[8] = second compound 0.1 µM, first compound 0.1 µM
[9] = second compound 0.1 µM, first compound 0.316 µM
[10] = second compound 0.1 µM, first compound 1 µM
[11] = second compound 0.1 µM, first compound 3.16 µM
[12] = second compound 0.1 µM, first compound 10 µM
[13] = second compound 0.316 µM, first compound 0.0316 µM
[14] = second compound 0.316 µM, first compound 0.1 µM
[15] = second compound 0.316 µM, first compound 0.316 µM
[16] = second compound 0.316 µM, first compound 1 µM
[17] = second compound 0.316 µM, first compound 3.16 µM
[18] = second compound 0.316 µM, first compound 10 µM
[19] = second compound 1 µM, first compound 0.0316 µM
[20] = second compound 1 µM, first compound 0.1 µM
[21] = second compound 1 µM, first compound 0.316 µM
[22] = second compound 1 µM, first compound 1 µM
[23] = second compound 1 µM, first compound 3.16 µM
[24] = second compound 1 µM, first compound 10 µM
[25] = second compound 3.16 µM, first compound 0.0316 µM
[26] = second compound 3.16 µM, first compound 0.1 µM
[27] = second compound 3.16 µM, first compound 0.316 µM
[28] = second compound 3.16 µM, first compound 1 µM
[29] = second compound 3.16 µM, first compound 3.16 µM
[30] = second compound 3.16 µM, first compound 10 µM
[31] = second compound 10 µM, first compound 0.0316 µM
[32] = second compound 10 µM, first compound 0.1 µM
[33] = second compound 10 µM, first compound 0.316 µM
[34] = second compound 10 µM, first compound 1 µM
[35] = second compound 10 µM, first compound 3.16 µM
[36] = second compound 10 µM, first compound 10 µM
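Also: spheroids exposed to the agents for seven days before readout.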
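For viability, T/C in this document: percent viability relative to DMSO vehicle control wells taken as 100%.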

Question: With `Nc1ccn(C2OC(CO)C(O)C2(F)F)c(=O)n1` (stereo unspecified) + CN(C)c1ccc(Nc2c3ccc(NC(=O)CCN4CCCC4)cc3nc3cc(NC(=O)CCN4CCCC4)ccc23)cc1 as the compound, how does the IC50 (second compound 0.0316 µM) read?
Answer: < 31.6 nM

Question: And the IC50 (second compound 0.1 µM)?
Answer: < 31.6 nM

Question: What about the IC50 (second compound 0.316 µM) of the same compound?
Answer: < 31.6 nM

Question: And the IC50 (second compound 1 µM)?
Answer: < 31.6 nM

Question: And the IC50 (second compound 3.16 µM)?
Answer: < 31.6 nM

Question: And the IC50 (second compound 10 µM)?
Answer: < 31.6 nM

Question: What about the viability, T/C [1] of the same compound?
Answer: 14%

Question: What about the viability, T/C [2] of the same compound?
Answer: 1.18%

Question: What about the viability, T/C [3] of the same compound?
Answer: 0.88%

Question: And the viability, T/C [4]?
Answer: 0.96%

Question: What about the viability, T/C [5] of the same compound?
Answer: 0.85%

Question: And the viability, T/C [6]?
Answer: 0.89%

Question: What about the viability, T/C [7] of the same compound?
Answer: 10.8%

Question: What about the viability, T/C [8] of the same compound?
Answer: 2.18%

Question: And the viability, T/C [9]?
Answer: 0.86%

Question: And the viability, T/C [10]?
Answer: 1.06%

Question: And the viability, T/C [11]?
Answer: 0.89%

Question: What about the viability, T/C [12] of the same compound?
Answer: 1.03%

Question: What about the viability, T/C [13] of the same compound?
Answer: 8.99%

Question: And the viability, T/C [14]?
Answer: 1.42%

Question: What about the viability, T/C [15] of the same compound?
Answer: 0.99%

Question: What about the viability, T/C [16] of the same compound?
Answer: 0.97%

Question: And the viability, T/C [17]?
Answer: 0.84%

Question: What about the viability, T/C [18] of the same compound?
Answer: 0.93%

Question: What about the viability, T/C [19] of the same compound?
Answer: 9.78%

Question: And the viability, T/C [20]?
Answer: 1.73%

Question: What about the viability, T/C [21] of the same compound?
Answer: 1.22%

Question: What about the viability, T/C [22] of the same compound?
Answer: 1.01%

Question: And the viability, T/C [23]?
Answer: 0.89%

Question: And the viability, T/C [24]?
Answer: 0.91%

Question: What about the viability, T/C [25] of the same compound?
Answer: 8.33%

Question: And the viability, T/C [26]?
Answer: 1.17%

Question: And the viability, T/C [27]?
Answer: 1.01%

Question: What about the viability, T/C [28] of the same compound?
Answer: 0.9%

Question: And the viability, T/C [29]?
Answer: 1.5%

Question: What about the viability, T/C [30] of the same compound?
Answer: 0.99%

Question: What about the viability, T/C [31] of the same compound?
Answer: 5.04%

Question: And the viability, T/C [32]?
Answer: 1.02%

Question: What about the viability, T/C [33] of the same compound?
Answer: 1.04%

Question: And the viability, T/C [34]?
Answer: 0.83%

Question: What about the viability, T/C [35] of the same compound?
Answer: 0.85%

Question: And the viability, T/C [36]?
Answer: 0.85%

Question: What does the source list for `CC1COCCN1c1cc(C2(S(C)(=N)=O)CC2)nc(-c2ccnc3[nH]ccc23)n1` (stereo unspecified) + Cc1[nH]c2ccc(F)cc2c1-c1nc2c3cccnc3c3ncccc3c2[nH]1?
Answer: IC50 (second compound 0.0316 µM): 2500 nM; IC50 (second compound 0.1 µM): 3030 nM; IC50 (second compound 0.316 µM): 3130 nM; IC50 (second compound 1 µM): 2870 nM; IC50 (second compound 3.16 µM): 1750 nM; IC50 (second compound 10 µM): 1450 nM; viability, T/C [1]: 104%; viability, T/C [2]: 91.8%; viability, T/C [3]: 109%; viability, T/C [4]: 90.9%; viability, T/C [5]: 39.4%; viability, T/C [6]: 7.57%; viability, T/C [7]: 106%; viability, T/C [8]: 104%; viability, T/C [9]: 105%; viability, T/C [10]: 96.3%; viability, T/C [11]: 48.2%; viability, T/C [12]: 8.79%; viability, T/C [13]: 99.8%; viability, T/C [14]: 100%; viability, T/C [15]: 106%; viability, T/C [16]: 101%; viability, T/C [17]: 49.6%; viability, T/C [18]: 6.54%; viability, T/C [19]: 99.2%; viability, T/C [20]: 103%; viability, T/C [21]: 108%; viability, T/C [22]: 90.6%; viability, T/C [23]: 46.4%; viability, T/C [24]: 7.68%; viability, T/C [25]: 101%; viability, T/C [26]: 106%; viability, T/C [27]: 107%; viability, T/C [28]: 77.5%; viability, T/C [29]: 20.6%; viability, T/C [30]: 5.11%; viability, T/C [31]: 101%; viability, T/C [32]: 100%; viability, T/C [33]: 97.7%; viability, T/C [34]: 69.1%; viability, T/C [35]: 9.9%; viability, T/C [36]: 3.37%

Question: How did the IC50 (second compound 0.0316 µM) turn out when `COc1cc(C2c3cc4c(cc3C(OC3OC5COC(C)OC5C(O)C3O)C3COC(=O)C23)OCO4)cc(OC)c1O` (stereo unspecified) + CN(C)c1ccc(Nc2c3ccc(NC(=O)CCN4CCCC4)cc3nc3cc(NC(=O)CCN4CCCC4)ccc23)cc1 was run?
Answer: 300 nM

Question: What about the IC50 (second compound 0.1 µM) of the same compound?
Answer: 301 nM

Question: What about the IC50 (second compound 0.316 µM) of the same compound?
Answer: 271 nM

Question: What about the IC50 (second compound 1 µM) of the same compound?
Answer: 276 nM

Question: What about the IC50 (second compound 3.16 µM) of the same compound?
Answer: 270 nM

Question: What about the IC50 (second compound 10 µM) of the same compound?
Answer: 202 nM

Question: What about the viability, T/C [1] of the same compound?
Answer: 115%

Question: And the viability, T/C [2]?
Answer: 105%

Question: And the viability, T/C [3]?
Answer: 46.6%

Question: What about the viability, T/C [4] of the same compound?
Answer: 9.16%

Question: What about the viability, T/C [5] of the same compound?
Answer: 1.79%

Question: And the viability, T/C [6]?
Answer: 0.77%

Question: And the viability, T/C [7]?
Answer: 111%

Question: And the viability, T/C [8]?
Answer: 107%

Question: And the viability, T/C [9]?
Answer: 46.6%

Question: What about the viability, T/C [10] of the same compound?
Answer: 9.53%

Question: And the viability, T/C [11]?
Answer: 1.99%

Question: What about the viability, T/C [12] of the same compound?
Answer: 0.86%

Question: What about the viability, T/C [13] of the same compound?
Answer: 101%

Question: What about the viability, T/C [14] of the same compound?
Answer: 104%

Question: What about the viability, T/C [15] of the same compound?
Answer: 41.9%

Question: And the viability, T/C [16]?
Answer: 5.72%

Question: And the viability, T/C [17]?
Answer: 2.08%

Question: And the viability, T/C [18]?
Answer: 0.76%

Question: And the viability, T/C [19]?
Answer: 104%

Question: And the viability, T/C [20]?
Answer: 109%

Question: What about the viability, T/C [21] of the same compound?
Answer: 42.4%

Question: And the viability, T/C [22]?
Answer: 6.82%

Question: And the viability, T/C [23]?
Answer: 1.89%

Question: And the viability, T/C [24]?
Answer: 1.07%

Question: What about the viability, T/C [25] of the same compound?
Answer: 96.1%

Question: What about the viability, T/C [26] of the same compound?
Answer: 108%

Question: What about the viability, T/C [27] of the same compound?
Answer: 41.8%

Question: And the viability, T/C [28]?
Answer: 6.04%

Question: What about the viability, T/C [29] of the same compound?
Answer: 2.44%

Question: What about the viability, T/C [30] of the same compound?
Answer: 0.87%

Question: And the viability, T/C [31]?
Answer: 108%

Question: What about the viability, T/C [32] of the same compound?
Answer: 98.1%

Question: What about the viability, T/C [33] of the same compound?
Answer: 19.4%

Question: What about the viability, T/C [34] of the same compound?
Answer: 3.24%

Question: What about the viability, T/C [35] of the same compound?
Answer: 1.49%

Question: What about the viability, T/C [36] of the same compound?
Answer: 0.61%
